Patent US4435570A, “5-(Phenyl or benzyl amino)methyl-pyrrolo[2,3-d]pyrimidin-4-one” (Takeda Chemical Industries, Ltd., priority 1981, dated 1984)
≈ marks a conversion by molar mass, not a printed value.

Key:
[1] = tested on: rat liver tRNA-guanine transglycosidase; assay: Intake of compound into tRNA (tRNA-guanine transglycosidase, [3H]guanine-labeled tRNA); format: biochemical; settings: 0.02 OD260 of compound, 0.5 unit enzyme, 100 μl, 37° C., 17 hrs
Protocol: Intake of the compound of Example 1 into tRNA [^3 H]guanine-labeled tRNA* (8000 cpm), 70 mM Trishydrochloride, 60 mM magnesium chloride, 0.5 unit of rat liver tRNA-guanine transglycosidase and 0.02 OD260 of the compound of Example 1 were adjusted to 100 μl and reacted at 37° C. for 17 hrs. The reaction mixture was absorbed into a strip of Whatman 3 MM filter paper and washed three times with a 5% aqueous solution of trichloroacetic acid, once each with ethanol-ether (1:1) and ether. After drying, the paper strip was scanned with a toluenic scintillant.
* tRNA labeled with [^3 H] guanine in the first letter of its anticodon.
The 0.02 OD260 equivalent of the compound of Example 3 was adjusted to 100 μl and subjected to the same procedure as Experimental Example 1.

[2] = tested on: L5178Y cells (tumor cells); assay: Inhibitory effect upon the multiplication of tumor cells; format: cell-based; settings: RPMI 1640 medium+10% fetal calf serum, 48 hours, 37° C.; for IC50: Mus musculus, read-out: ED50 (concentration giving a cell count of 50% of control)
Protocol: The inhibitory effect of compound (I) upon the multiplication of cells was detected using L5178Y cells (tumor cells) in RPMI 1640 medium+10% fetal calf serum for 48 hours at 37° C.
The result was expressed in the concentration of the drug giving a cell count of 50% (ED50) with the average number of cells for the control (not modicated) group on the 2nd day being taken as 100%.

[3] = tested on: tRNA in the tumor cells (S-180 cancer-bearing mice); assay: Intake of the radioactive compound into a tumor tissue (tRNA of tumor cells of S-180 cancer-bearing mice); format: in vivo; settings: 100 mg (0.17 mCi)/kg, tail vein once, 24 hours after administration, S-180 i.p. ddN mice
Protocol: Intake of the radioactive compound of Example 2 into a tumor tissue
Using S-180 cancer-bearing mice (ddN mice, 10^7 tumor cells/mouse as transplanted i.p.), 100 mg (0.17 mCi)/kg of the radioactive compound of Example 2 was administered into the tail vein once. Twenty-four hours after administration, the animal was sacrificed and the tumor cells were taken out and the rate of takeup of the radioactive compound into tRNA in the tumor cells was determined. […] [Experimental method: N. Okada et al., Biochem., 19, 395 (1980)]

| SMILES | taken into tRNA [1] [%] | IC50 [2] [µg/mL] | rate of takeup of the radioactive compound into tRNA in the tumor cells (tRNA substituted) [3] [%] | ED50 (concentration giving a cell count of 50% of control) [2] [µg/mL] |
| --- | --- | --- | --- | --- |
| N=C(NCc1c[nH]c2nc(N)[nH]c(=O)c12)c1cc(I)c(O)c(I)c1 [Example 1, 2-amino-5-[α-(3,5-diiodo-4-hydroxy)phenyliminomethylamino]methylpyrrolo[2,3-d]pyrimidin-4-one] | 59 | 20 (≈ 36.4 µM) |  |  |
| N=C(NCc1c[nH]c2nc(N)[nH]c(=O)c12)c1cc(I)c(O)c(I)c1 [Example 2, radioactive 2-amino-5-[α-(3,5-diiodo-4-hydroxy)phenyliminomethylamino]methylpyrrolo[2,3-d]pyrimidin-4-one] |  |  | ~100 |  |
| Nc1nc2[nH]cc(CNCc3ccc(I)cc3)c2c(=O)[nH]1 [Example 3, 2-amino-5-(p-iodobenzyl)aminomethylpyrrolo[2,3-d]pyrimidin-4-one] | 93 | 35 (≈ 88.6 µM) |  |  |
| Nc1nc2[nH]cc(CN[C@H]3C=C[C@H](O)[C@@H]3O)c2c(=O)[nH]1 [Q base, reference compound] |  |  |  | > 200 |
